The results in this text go back to ChEMBL document CHEMBL1201862, “PubChem BioAssay data set” (2004).

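Interpolation was linear, between the two tested concentrations surrounding the appropriate level; five concentrations were tested over 48 hours in 96-well plates. GI50 marks 50% less growth.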 Calls of active or inactive are those of the source. Cut-off read from the data, not from the text of the source: active = GI50 up to about 1.1 µM and inactive = higher. Starred links: 1 amine or outer side, 2 acyl side, 3 side chain; linkers in the order of their positions; H or OH if unused. Residues, ends and D or L forms follow the SMILES beside them. *: point of attachment. γGlu = O=C(O)[CH](CCC(=O)[*:2])N[*:1]; NHOH = ON* A value given as a limit tells only on which side of the number the result lay.

Holding throughout (experiment): NCI anticancer screen, dose series, 48 h
The test system of test [1] is PC-3.
Test [2] deals with MDA-N.
For test [3], the system named is HCT-15.
Test [4] has as its system HOP-62.
The subject of test [5] is A549.
Test [6] relates to UACC-257.
For test [7], the system named is Malme-3M.
Test [8] concerns SNB-75.
The test system of test [9] is OVCAR-3.
Test [10] has as its system OVCAR-4.
Test [11] has as its system A498.
The test system of test [12] is BT-549.
Test [13] has as its system ACHN.
Test [14] deals with SNB-19.
Test [15] concerns SK-MEL-5.
Test [16] deals with TK-10.
In test [17] the test system is NCI-H226.
Test [18] concerns KM12.
For test [19], the system named is LOX IMVI.
The test system of test [20] is 786-0.

As for `CC(=O)O/C(=C1\C[C@H]2[C@@H]3CC=C4C[C@@H](OC(C)=O)CC[C@]4(C)[C@H]3CC[C@]2(C)C1=O)C(F)(F)F`, the GI50 in [1] was 13.5 µM (inactive); in [2] it was 7.64 µM (inactive); in test [3], 4.03 µM; in [4], 14.1 µM (inactive); in test [5], 15.3 µM (inactive); in test [6], 6.98 µM (inactive). Besides, the GI50 in test [7] is 3.56 µM (inactive); in [8], 21.9 µM (inactive); in [9], 5.87 µM (inactive); in test [10], 11.4 µM (inactive); in test [11], 19.3 µM (inactive); in test [12] it was 12.2 µM (inactive). In addition, the GI50 is 16.2 µM (inactive) in test [13]; 17.8 µM (inactive) in [14]; 6.08 µM (inactive) in test [15]; 12.2 µM (inactive) in test [16]; 21 µM (inactive) in test [17]; 12.7 µM (inactive) in test [18]. Also, the GI50 in test [19] is 1.86 µM (inactive); in test [20] it was 8.53 µM (inactive).

Take `CCOC(=O)CNC(=O)C(CCC(=O)NO)NC(=O)CCC(N)C(=O)O` (stereo not given) (γGlu-Glu(NHOH)-Gly-OEt; configuration not given here): the GI50 in test [1] is > 100 µM (inactive); in test [2], > 100 µM (inactive); in test [3], over 100 µM; in [4] it was > 100 µM (inactive); in test [5], > 100 µM (inactive); in [6], > 100 µM (inactive). In addition, the GI50 in test [8], in [9], in test [10], in test [11], in [12] and in [13] was > 100 µM (inactive) throughout. Also, the GI50 in [14], in [15], in test [16], in test [17], in test [18] and in test [19] was > 100 µM (inactive) in each case. Besides, the GI50 in test [20] was > 100 µM (inactive).

Consider `Nc1nc(-c2cccnc2)cc(-c2cc(-c3cccnc3)nc(N)n2)n1`, for which the GI50 in test [1] is > 100 µM (inactive); in test [2], 58.7 µM (inactive); in [3], over 100 µM; in test [4] it was > 100 µM (inactive); in test [5], > 100 µM (inactive); in test [6], > 100 µM (inactive). The GI50 in test [7], in test [9], in [10], in [11], in test [12] and in test [13] was > 100 µM (inactive) each time. The GI50 in test [14], in test [15], in [16], in [17], in test [18] and in test [19] was > 100 µM (inactive) in each case. Moreover, the GI50 in [20] was > 100 µM (inactive).

For the compound `COc1ccc2cc(NC(=O)N/N=C\c3ccc([N+](=O)[O-])cc3)ccc2c1`, the GI50 in test [1] was 27.6 µM (inactive); in [2] it was 79.3 µM (inactive); in [3], 48 µM; in [4], 19.5 µM (inactive); in [5] it was 34.1 µM (inactive); in test [6] it was 42.2 µM (inactive). Besides, the GI50 in test [7] is 23.4 µM (inactive); in test [8] it was 21.3 µM (inactive); in [9] it was 40.5 µM (inactive); in test [10] it was 1.91 µM (inactive); in test [11], 53 µM (inactive); in [12], 27.2 µM (inactive). Besides, the GI50 in test [13] was 37.6 µM (inactive); in [14], 20.4 µM (inactive); in test [15], 73.3 µM (inactive); in test [17] it was 18.7 µM (inactive); in test [18] it was 72.3 µM (inactive); in test [19], > 100 µM (inactive). Further, the GI50 in test [20] is 30.5 µM (inactive).

As to `c1ccc2c(c1)Sc1ccccc1N2CCCN1c2ccccc2Sc2ccccc21`, the GI50 in test [1] is > 100 µM (inactive); in test [2], > 100 µM (inactive); in test [3], over 100 µM; in [4] it was 95.1 µM (inactive); in [5], > 100 µM (inactive); in [6] it was > 100 µM (inactive). The GI50 in test [7] was > 100 µM (inactive); in test [9], 63.5 µM (inactive); in [10] it was 36.1 µM (inactive); in test [11] it was > 100 µM (inactive); in test [12] it was > 100 µM (inactive); in [13] it was 39.1 µM (inactive). Besides, the GI50 in test [14], in [15], in [16], in [17], in [18] and in test [19] was > 100 µM (inactive) in each case. The GI50 in test [20] was 20.2 µM (inactive).

With `CC(=O)Nc1nc(Cl)cc(NCC2(CO)CCC2)n1`, the GI50 was > 100 µM (inactive) in [1]; > 100 µM (inactive) in [2]; over 100 µM in test [3]; > 100 µM (inactive) in test [4]; > 100 µM (inactive) in [5]; > 100 µM (inactive) in [6]. Besides, the GI50 in [7], in [8], in [9], in [10], in test [11] and in [12] was > 100 µM (inactive) throughout. The GI50 in [13], in test [14], in test [15], in [17], in [18] and in [19] was > 100 µM (inactive) each time. Besides, in test [20], the GI50 was > 100 µM (inactive).

Consider `C[C@@H]1CCC2[C@@H](C)[C@@H](OCCO[C@H]3OC4O[C@@]5(C)CCC6[C@H](C)CCC([C@H]3C)[C@@]46OO5)OC3O[C@@]4(C)CCC1[C@]32OO4` (stereo not given in full), for which the GI50 was 0.0174 µM (active) in test [1]; 0.219 µM (active) in test [2]; 0.0238 µM in test [3]; 1.34 µM (inactive) in test [4]; 0.0634 µM (active) in test [5]; 0.39 µM (active) in test [6]. Further, the GI50 in [7] was 0.182 µM (active); in test [8] it was 0.546 µM (active); in test [10] it was 0.0361 µM (active); in [11], 1.92 µM (inactive); in test [12], 0.883 µM (active); in test [13] it was 0.154 µM (active). The GI50 in [15] is 0.301 µM (active); in test [16], 0.206 µM (active); in [17], 0.289 µM (active); in [18] it was 0.056 µM (active); in test [19], 0.0565 µM (active); in test [20], 0.361 µM (active).

Take `COc1ccc(C2=NN(C(=O)c3ccccc3)C(O)(c3cc(F)c(Cl)cc3Cl)C2)cc1OC` (stereo not given): the GI50 is 31.3 µM (inactive) in [1]; 57.5 µM (inactive) in test [2]; over 100 µM in [3]; 17.2 µM (inactive) in test [4]; 93.8 µM (inactive) in test [5]; 60.4 µM (inactive) in test [6]. Also, the GI50 in test [7] is 57.9 µM (inactive); in [9], 20.4 µM (inactive); in [10], 18.5 µM (inactive); in [11], 32.1 µM (inactive); in test [12] it was > 100 µM (inactive); in [13], 32.5 µM (inactive). The GI50 in test [14] was 36.5 µM (inactive); in test [15] it was > 100 µM (inactive); in test [16] it was 35.9 µM (inactive); in test [17], > 100 µM (inactive); in test [18], > 100 µM (inactive); in test [19], 97.1 µM (inactive). The GI50 in [20] is 30.3 µM (inactive).

On to `CC1=C/C(=N/N2C(=O)/C(=C/c3ccc(Cl)cc3)N=C2c2ccccc2)CC(C)(C)C1`, for which the GI50 in test [1] was 61.2 µM (inactive); in test [2] it was 67.6 µM (inactive); in test [3] it was over 100 µM; in test [4] it was 54.2 µM (inactive); in [5], 78.2 µM (inactive); in test [6], 69.2 µM (inactive). Besides, the GI50 in test [7] was > 100 µM (inactive); in [8], 31.5 µM (inactive); in test [10], 45.9 µM (inactive); in test [11], > 100 µM (inactive); in test [12], > 100 µM (inactive); in [13], > 100 µM (inactive). For the same compound, the GI50 in test [14] was 65.5 µM (inactive); in [15], 35.7 µM (inactive); in test [16] it was 89.5 µM (inactive); in [17] it was 90.2 µM (inactive); in test [18], 51.1 µM (inactive); in [19], 42.1 µM (inactive). Also, the GI50 in [20] was 57 µM (inactive).

Consider `CN1CN(c2ccccc2)C2(CCN(C3Nc4ccccc4O3)CC2)C1=O` (stereo not given), for which the GI50 in [1] was 16.7 µM (inactive); in test [2] it was 17.9 µM (inactive); in test [3] it was 15.2 µM; in [4], 17 µM (inactive); in test [5], 27.3 µM (inactive); in test [6], 16.7 µM (inactive). Further, the GI50 is 17.3 µM (inactive) in test [7]; 20.9 µM (inactive) in test [8]; 17.2 µM (inactive) in [9]; 15.5 µM (inactive) in test [11]; 15.7 µM (inactive) in test [12]; 22 µM (inactive) in test [13]. Besides, the GI50 in test [14] is 23.7 µM (inactive); in test [15], 17.7 µM (inactive); in [16], 11.1 µM (inactive); in test [17], 18.6 µM (inactive); in test [18], 19.6 µM (inactive); in test [19] it was 13.6 µM (inactive). In addition, the GI50 in [20] is 20.6 µM (inactive).
